Assay: Metabolic stability in human liver S9 fraction assessed as parent compound remaining after 60 mins
Assay type: ADME, subcellular
Settings: read-out: Stability

In the case of C[C@@H](Oc1cc(C(=O)N(C)C)ccc1Nc1nc(O[C@H]2CC[C@@](C)(O)CC2)c2c(Cl)c[nH]c2n1)C(F)(F)F, the remaining at 1 h is reported as 65%.

From ChEMBL document CHEMBL4346709, “Design and Optimization Leading to an Orally Active TTK Protein Kinase Inhibitor with Robust Single Agent Efficacy” (J Med Chem, 2019)
